Test systems include SF-268; HT-29; NCI-H522; HCT-116; SK-MEL-2; EKVX; MCF7; HOP-92; SK-OV-3; SF-295; A498; CCRF-CEM; A549; SR; ACHN; T47D; MDA-MB-231; MDA-N; SN12C; SK-MEL-28.
Holding throughout (test): NCI anticancer screen, dose series, 48 h

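Tested at 5 concentrations; 48 h exposure; 96-well plates; endpoints linearly interpolated, else capped at highest concentration. GI50 is the concentration that inhibits growth by half.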 Calls of active or inactive are those of the source. No stated cut-off is given here; in the data, active = GI50 up to about 1.1 µM and inactive = higher.

As to `CC[C@H](CO)Nc1nc(NCc2ccccc2)c2ncn(C(C)C)c2n1` [SELICICLIB], the GI50 is 19.8 µM (inactive) in the assay with SF-268; 20 µM (inactive) with HT-29; 16.4 µM (inactive) in the assay with NCI-H522; 5.09 µM (inactive) in the assay with HCT-116; 17.5 µM (inactive) in the assay with SK-MEL-2; 19.1 µM (inactive) in the assay with EKVX. The GI50 is 13.5 µM (inactive) in the assay on MCF7; 50.9 µM (inactive) in the assay on HOP-92; 86.3 µM (inactive) in the assay on SK-OV-3; 25.5 µM (inactive) in the assay on SF-295; 48.1 µM (inactive) in the assay on A498; > 100 µM (inactive) with CCRF-CEM. Also, the GI50 with A549 is 13.6 µM (inactive); with SR, 5.4 µM (inactive); in the assay with ACHN, 12.8 µM (inactive); in the assay on T47D, 16.3 µM (inactive); with MDA-MB-231, 39.7 µM (inactive).

Turning to `Oc1ccc2ccccc2c1/N=N/c1cc(Cl)ccc1Cl`, the GI50 in the assay on MDA-N was 27.5 µM (inactive); in the assay on SF-268, 17.1 µM (inactive); in the assay with HT-29, 19.3 µM (inactive); in the assay with NCI-H522, 17.1 µM (inactive); in the assay on HCT-116 it was 15.6 µM (inactive); in the assay on SK-MEL-2 it was 28.4 µM (inactive). Moreover, the GI50 in the assay on SN12C was 13.3 µM (inactive); in the assay on EKVX, 9.06 µM (inactive); in the assay on HOP-92 it was 22.3 µM (inactive); in the assay with SK-OV-3, 10.8 µM (inactive); in the assay with SF-295, 9.73 µM (inactive); in the assay with SK-MEL-28, > 50 µM (inactive). Further, the GI50 with CCRF-CEM was 17.9 µM (inactive); in the assay with A549, 17 µM (inactive); with ACHN it was 11 µM (inactive); with MDA-MB-231, 11.8 µM (inactive).

`COc1c(C2(c3ccc(F)cc3)SCCCS2)c(=O)c1=O`: the GI50 in the assay with MDA-N, in the assay on SF-268, in the assay on HT-29, in the assay on HCT-116, with SK-MEL-2 and in the assay on SN12C was > 100 µM (inactive) throughout. Further, the GI50 in the assay on EKVX, in the assay on MCF7, with HOP-92, with SK-OV-3, in the assay with SF-295 and in the assay with SK-MEL-28 was > 100 µM (inactive) in each case. For the same molecule, the GI50 in the assay with CCRF-CEM, with A549, with ACHN and in the assay on MDA-MB-231 was > 100 µM (inactive) throughout.

On to `CC(=O)OCC1=C(CCC#N)N2C(=O)C(NC(=O)Cc3cccs3)C2[S+]([O-])C1` (stereo not drawn), for which the GI50 is > 100 µM (inactive) in the assay on SF-268; > 100 µM (inactive) with HT-29; 44.6 µM (inactive) in the assay on NCI-H522; > 100 µM (inactive) with HCT-116; > 100 µM (inactive) with SK-MEL-2; > 100 µM (inactive) in the assay with SN12C. Besides, the GI50 in the assay with EKVX, in the assay with HOP-92, with SK-OV-3, in the assay with SF-295, in the assay with A498 and with SK-MEL-28 was > 100 µM (inactive) throughout. The GI50 in the assay on CCRF-CEM, in the assay on A549, with SR and in the assay with ACHN was > 100 µM (inactive) throughout.

As for `CCOC(=O)C1(Br)C(c2ccccc2)NC(=O)NC1(C)Br` (stereo not drawn), the GI50 is > 100 µM (inactive) in the assay on SF-268; > 100 µM (inactive) in the assay on HT-29; 30.3 µM (inactive) with NCI-H522; 60.4 µM (inactive) in the assay with HCT-116; > 100 µM (inactive) in the assay with SK-MEL-2; 59.6 µM (inactive) in the assay with SN12C. In addition, the GI50 in the assay with EKVX was 95.3 µM (inactive); in the assay on HOP-92, > 100 µM (inactive); with SK-OV-3, > 100 µM (inactive); in the assay on SF-295, > 100 µM (inactive); in the assay on A498, > 100 µM (inactive); with SK-MEL-28 it was > 100 µM (inactive). For the same molecule, the GI50 in the assay with CCRF-CEM was 33.9 µM (inactive); in the assay on A549, > 100 µM (inactive); in the assay with SR it was 57.1 µM (inactive); in the assay on ACHN, > 100 µM (inactive).

`COc1ccc(Nc2nc3ccc(C(F)(F)F)cc3nc2C(=O)O)cc1OC`: the GI50 with MDA-N is 34.7 µM (inactive); in the assay on SF-268 it was 34.1 µM (inactive); in the assay with HT-29, 38.4 µM (inactive); with NCI-H522 it was 25.8 µM (inactive); with HCT-116 it was 25.9 µM (inactive); in the assay on SK-MEL-2, 17.2 µM (inactive). The GI50 with SN12C was 34.9 µM (inactive); in the assay on EKVX, 36.2 µM (inactive); in the assay with MCF7 it was 33.9 µM (inactive); in the assay with SF-295, 24 µM (inactive); in the assay on A498, 27.9 µM (inactive); with SK-MEL-28, 41.6 µM (inactive). The GI50 in the assay with SR was 18.9 µM (inactive); in the assay on ACHN, 35.2 µM (inactive); with MDA-MB-231, 37.9 µM (inactive).

Turning to `Cc1ccc([N+](=O)[O-])cc1NC(=O)C(=O)Cc1cc(=O)oc2cc(O)ccc12`, the GI50 in the assay on SF-268 is 32 µM (inactive); with HT-29, > 100 µM (inactive); in the assay on NCI-H522, > 100 µM (inactive); with HCT-116, 24.2 µM (inactive); with SK-MEL-2, > 100 µM (inactive); in the assay on SN12C, > 100 µM (inactive). Further, the GI50 in the assay with EKVX was > 100 µM (inactive); in the assay on HOP-92, > 100 µM (inactive); in the assay with SK-OV-3 it was > 100 µM (inactive); in the assay with SF-295, > 100 µM (inactive); in the assay with A498, > 100 µM (inactive); in the assay on SK-MEL-28, 33.5 µM (inactive). Besides, the GI50 with CCRF-CEM is 39.1 µM (inactive); in the assay on A549, > 100 µM (inactive); in the assay with SR it was 32.4 µM (inactive); in the assay with ACHN, > 100 µM (inactive).

For the molecule `CCN(CCCOc1ccccc1)CCN(CC)CCCOc1ccccc1`, the GI50 with SF-268 was 12.6 µM (inactive); in the assay on HT-29, 7.59 µM (inactive); with NCI-H522, 14.2 µM (inactive); in the assay with HCT-116, 11.7 µM (inactive); in the assay with SK-MEL-2, 17.9 µM (inactive); in the assay with SN12C it was 20 µM (inactive). In addition, the GI50 in the assay with EKVX is 12.7 µM (inactive); with MCF7, 30.8 µM (inactive); in the assay with SF-295 it was 15.6 µM (inactive); in the assay with SK-MEL-28, 15.1 µM (inactive); in the assay on CCRF-CEM it was 0.71 µM (active); in the assay with A549 it was 12.8 µM (inactive). The GI50 in the assay with SR is 8.26 µM (inactive); in the assay with ACHN, 16.3 µM (inactive); with MDA-MB-231, 16.1 µM (inactive).

Turning to `COc1cc(OC)c2c(c1)C(=O)C(CC1(C)OCCCO1)=CC2=O`, the GI50 in the assay with SF-268 is 13.9 µM (inactive); in the assay on HT-29 it was 13.8 µM (inactive); with NCI-H522, 3.43 µM (inactive); with HCT-116, 5.35 µM (inactive); in the assay on SK-MEL-2, 15.2 µM (inactive); in the assay with SN12C, 14 µM (inactive). Besides, the GI50 was 14.3 µM (inactive) in the assay on EKVX; 1.83 µM (inactive) in the assay with HOP-92; 20 µM (inactive) in the assay with SK-OV-3; 14.6 µM (inactive) in the assay with SF-295; 18.4 µM (inactive) with A498; 11.6 µM (inactive) with SK-MEL-28. For the same molecule, the GI50 was 1.74 µM (inactive) in the assay with CCRF-CEM, 18.9 µM (inactive) in the assay on A549, 1.29 µM (inactive) in the assay on SR and 9.75 µM (inactive) in the assay on ACHN.

These data come from ChEMBL document CHEMBL1201862, “PubChem BioAssay data set” (2004).
